The values that follow come from PMC5323330 (SLAS discovery, 2016).

The test system of assay [1] is SERCA. Conditions: cited from earlier work.
Assay [2] deals with cytosolic calcium. Conditions: cited from earlier work.
For assay [3], the system named is endoplasmic reticulum [Ca2+] in HEK293 cells expressing D1ER. Nature of the assay: D1ER calcium FRET sensor, ER calcium content in live cells. The format is cell-based, human. Conditions: 120 min time point.

For the compound `Clc1ccccc1C(c1ccccc1)(c1ccccc1)n1ccnc1` [Clotrimazole, clotrimazole], the “SERCA function, earlier report” value in assay [1] is “inhibit SERCA function”.

Turning to `Oc1cc(Cl)ccc1Oc1ccc(Cl)cc1Cl` [triclosan], in assay [2], the “cytosolic calcium, earlier report” value was “increase cytosolic calcium”.

Take `Clc1ccc(COC(Cn2ccnc2)c2ccc(Cl)cc2Cl)c(Cl)c1` (stereo not drawn) [Miconazole]: in assay [3], the “ER calcium depletion (decreased D1ER FRET)” value is given as “largest amount of ER calcium depletion”.
